Columns and labels:
HIV-1 (NL4-3balenv) [1] = assay: HIV-1 transfer assay: virus-pulsed IM-MDDC co-cultured with autologous CD4+ T cells, p24 ELISA; format: cell-based, human immunodeficiency virus type 1
Protocol: HIV-1 transfer assay: IM-MDDC (10^5 cells in 100 μl) transfected either with the above listed siRNAs or pre-incubated with polyclonal anti-DCIR (10 μg/1.5×10^5 cells) were exposed to HIV-1 (10 ng of p24) for 60 min at 37° C. Next, the virus-cell mixture was washed three times with PBS to remove unadsorbed virions. In some experiments, cells were also treated with the anti-HIV-1 drug EFV (efavirenz) (50 μM). Finally, IM-MDDC were co-cultured with autologous activated CD4^+ T lymphocytes at a 1:3 ratio in complete RPMI-1640 medium supplemented with IL-2 (30 U/ml) in 96-well plates in a final volume of 200 μl. At day 2, virus production was estimated by measuring p24 levels in cell-free culture supernatants by ELISA.
(§1) We next evaluated the transfer of HIV to autologous CD4^+ T cells. To that effect, IM-MDDC (1×10^6 cells) were treated with Oligofectamine and then either left untreated (control) or exposed to a non-specific siRNA and a DCIR-specific siRNA. Next, cells (1×10^5) were pulsed with NL4-3balenv (10 ng of p24) for 60 min at 37° C. After three washes with PBS to eliminate unbound virus, IM-MDDC were co-cultured with autologous CD4^+ T cells at a 1:3 ratio. Cell-free culture supernatants were collected at day 2 following initiation of the co-culture and analyzed for the p24 content. Data shown in FIG. 3 represent the means±SD of triplicate samples from three combined independent experiments. Asterisks denote statistically significant data (***, P<0.001).
as §1, with “In FIG. 4A,” for “We next evaluated the transfer of HIV to autologous CD4^+ T cells. To that effect,”, “were either left untreated or treated with EFV. IM-MDDC (2×10^5 cells)” for “(1×10^5)”, “(20” for “(10”, “shown” for “shown in FIG. 3”, “two different donors and are representative of four separate donors.” for “three combined independent experiments.”, “(*, P<0.05, **, P<0.01).” for “(***, P<0.001).”
(§2) In FIG. 5 left panels, IM-MDDC (2×10^5 cells) were initially treated with either a control Ab or a polyclonal anti-DCIR (10 μg per 1.5×10^5 cells). Next, cells were extensively washed to eliminate excess Ab and pulsed with NL4-3balenv (20 ng of p24) for 2 hrs at 37° C. […] Cell-free culture supernatants were collected at the indicated time points and analyzed for the p24 content. […] Cell-free culture supernatants were collected at day 2 following initiation of the co-culture and analyzed for the p24 content. […]

HIV-1 (NL4-3balenv) [2] = assay: HIV-1 infection of IM-MDDC: virus production by p24 ELISA; format: cell-based, human immunodeficiency virus type 1; conditions: siRNA-transfected IM-MDDC pulsed with NL4-3balenv 20 ng p24 for 2 hrs; FIG. 4C
Protocol: HIV-1 infection of IM-MDDC: IM-MDDC (2×10^5 cells in a final volume of 100 μl) either transfected with the studied siRNAs or pre-incubated with the above mentioned polyclonal anti-DCIR were exposed to HIV-1 (20 ng of p24) for 2 hr at 37° C. After three washes with PBS, cells were maintained in complete RPMI-1640 culture medium supplemented with GM-CSF (1,000 U/ml) and IL-4 (200 U/ml) in 96-well plates in a final volume of 200 μl. Every 3 days and for a period lasting 9 days, half of the medium was removed and kept frozen at −20° C. until assayed. Virus production was estimated by measuring p24 levels in culture supernatants by ELISA. […]
In FIG. 4C, IM-MDDC were treated with Oligofectamine and then either left untreated (control) or exposed to a non-specific siRNA and a DCIR-specific siRNA. […] Cell-free culture supernatants were collected at the indicated time points and analyzed for the p24 content. […]
as §2, with “cells).” for “cells). Next, cells were extensively washed to eliminate excess Ab and pulsed with NL4-3balenv (20 ng of p24) for 2 hrs at 37° C.”

IM-MDDC = format: cell-based, human
Source text: (§3) A ˜30% decrease in surface expression of DCIR in IM-MDDC was observed following the use of DCIR-specific siRNA (FIG. 2).

DCIR = DCIR surface expression in siRNA-transfected IM-MDDC by flow cytometry; format: cell-based, human; conditions: 40 hrs after siRNA transfection, FIG. 2
Protocol: Flow cytometric analysis: Cell surface expression of DCIR was monitored by flow cytometric analysis with a flow cytometry apparatus (Epics ELITE ESP, Coulter Electronics, Burlington, ON). Before staining, cells were incubated for 15 min at 4° C. with 10% pooled human sera to block non-specific binding sites and washed once with phosphate buffered saline (PBS) supplemented with 0.5% bovine serum albumin (BSA). Next, cells were incubated for 45 min at 4° C. with anti-DCIR (0.25 μg) monoclonal Ab and then washed twice with PBS and 0.5% BSA. Non-specific staining was determined by using an isotype-matched irrelevant control Ab. After two final washes with PBS, cells were fixed in 2% paraformaldehyde and analyzed.
Gene silencing of DCIR with siRNAs: Small interfering RNAs (siRNAs) either specific (i.e. 5′-ATTTAGGTGGTCTGTCA-3′; [SEQ ID NO:11]) or non-specific for DCIR (i.e. 5′-[…]-3′; [SEQ ID NO:45]) were obtained from Qiagen and dissolved in an appropriate buffer. The studied siRNAs were subsequently tested in IM-MDDC as previously described 2. Control cells were treated with either Oligofectamine alone or Oligofectamine and non-specific siRNAs. […] The efficiency of DCIR silencing with the tested siRNA was monitored by flow cytometry.
We thus employed RNA interference to reduce DCIR expression in IM-MDDC and analyzed the possible effect on HIV-1 transfer. […]

DC-SIGN = DC-SIGN expression in IM-MDDC after DCIR-specific siRNA; format: cell-based, human; conditions: IM-MDDC transfected with siRNA; data not shown
Source text: as §3

Row | Compound | effect on HIV-1 propagation (virus transfer) (HIV-1 (NL4-3balenv) [1]; EFV 50 μM added to IM-MDDC, FIG. 4A) | de novo virus production in IM-MDDC (p24) (HIV-1 (NL4-3balenv) [2]) | cells viability (IM-MDDC) | decrease in surface expression of DCIR in IM-MDDC (DCIR) [%] | DC-SIGN expression (DC-SIGN) | reduction in virus transfer (average diminution) (HIV-1 (NL4-3balenv) [1]; cells treated with EFV (50 μM), NL4-3balenv 20 ng p24, co-culture day 2, FIG. 4A) [%] | reduction in virus transfer (average decrease) (HIV-1 (NL4-3balenv) [1]; in absence of EFV, NL4-3balenv 20 ng p24, co-culture day 2, FIG. 4A) [%] | transfer of HIV-1 from IM-MDDC to autologous CD4+ T cells (p24 content) (HIV-1 (NL4-3balenv) [1]; siRNA-transfected IM-MDDC pulsed with NL4-3balenv 10 ng p24 for 60 min, co-culture 1:3, day 2, FIG. 3)
1 | O=C1Nc2ccc(Cl)cc2[C@@](C#CC2CC2)(C(F)(F)F)O1 [EFV, efavirenz, reference compound] | limited effect |  |  |  |  |  |  | 
2 | DCIR-specific siRNA: siRNA specific for DCIR, 5′-ATTTAGGTGGTCTGTCA-3′ [SEQ ID NO:11], obtained from Qiagen (chemistry not given here) |  | decrease | minimally affected | ~30 | not affected | 40 | 30 | reduced significantly
